From ChEMBL document CHEMBL1128443, “Synthesis and structure-activity relationships of phenylenebis(methylene)-linked bis-tetraazamacrocycles that inhibit HIV replication. Effects of macrocyclic ring size and substituents on the aromatic linker” (J Med Chem, 1995)

What was measured:
[1] = tested on: Human immunodeficiency virus 1; assay: Concentration required to protect the virus infected cells against viral cytopathicity was measured on HIV-1(IIIB) virus strain in MT-4 cells; type: functional, organism-based, MT4
MT4 [2] = assay: Concentration required to reduce the viability of mock-infected MT-4 cells; type: functional, Homo sapiens
[3] = tested on: Human immunodeficiency virus 2; assay: Concentration required to protect the virus infected cells against viral cytopathicity was measured on HIV-2(ROD) virus strain in MT-4 cells; type: functional, organism-based, MT4
MT4 [4] = conditions: Homo sapiens
[5] = Human immunodeficiency virus 1, MT4
[6] = Human immunodeficiency virus 2, MT4
[7] = mt4, tested as the Zn salt or complex

Row | Molecule | EC50 [1, 5] [µM] | CC50 (MT4 [2]; Homo sapiens, MT4) [µM] | EC50 [3, 6] [µM] | other results
1 | Brc1c(CN2CCCNCCNCCCNCC2)cccc1CN1CCCNCCNCCCNCC1 | 0.138 | > 144 | 0.246 | 
2 | Fc1c(CN2CCCNCCNCCCNCC2)cccc1CN1CCCNCCNCCCNCC1 | 0.0347 | > 201 | 0.0734 | 
3 | c1cc(CN2CCCNCCNCCCNCC2)ccc1CN1CCCNCCNCCCNCC1 [listing 1 of 2 here] |  |  |  | EC50 [1, 7]: 0.0033 µM; CC50 (MT4 [2]; tested as the Zn salt or complex): > 251 µM; EC50 [3, 7]: 0.0024 µM
4 | c1cc(CN2CCCNCCNCCNCCC2)ccc1CN1CCCNCCCNCCCNCCC1 | 0.318 | 101 | 3.18 | 
5 | c1cc(CN2CCCNCCCNCCNCCC2)ccc1CN1CCCNCCCNCCNCCC1 | 1.67 | 171 | 2.01 | 
6 | 1,1'-[1,4-phenylenebis(methylene)]bis[1,4,8,11-tetraazacyclotetradecane] Palladium Diperchlorate Tetrahydrate (4H2O) [listing 1 of 2 here] |  |  |  | CC50 (MT4 [4]): > 210 µM
7 | c1cc(CN2CCCNCCCNCCNCCC2)cc(CN2CCCNCCCNCCNCCC2)c1 | 2.72 | > 190 | 11.7 | 
8 | c1cc(CN2CCCNCCNCCNCCC2)ccc1CN1CCCNCCNCCNCCC1 | 0.0253 | > 421 | 0.059 | 
9 | c1cc(CN2CCCNCCNCCCNCC2)cc(CN2CCCNCCNCCCNCC2)c1 | 0.0337 | > 421 | 0.0422 | 
10 | c1cc(CN2CCNCCCNCCNCC2)ccc1CN1CCNCCCNCCNCC1 | 0.167 | > 208 | 0.234 | 
11 | Clc1c(Cl)c(CN2CCCNCCNCCCNCC2)c(Cl)c(CN2CCCNCCNCCCNCC2)c1Cl | 0.529 | 9 | 1.96 | 
12 | c1cc(CCN2CCCNCCNCCCNCC2)ccc1CCN1CCCNCCNCCCNCC1 | 14.9 | > 201 | 69.7 | 
13 | c1cc(CN2CCCNCCNCCNCCC2)cc(CN2CCCNCCNCCNCCC2)c1 | 0.323 | > 403 | 0.645 | 
14 | c1cc(CN2CCCNCCCNCCCNCCC2)ccc1CN1CCCNCCCNCCCNCCC1 | 9.13 | 48 | 13.7 | 
15 | COc1cc(CN2CCCNCCNCCCNCC2)c(OC)cc1CN1CCCNCCNCCCNCC1 | 0.0058 | > 206 | 0.0066 | 
16 | c1cc(CN2CCCNCCCNCCCNCCC2)cc(CN2CCCNCCCNCCCNCCC2)c1 | 16.7 | 193 | 71.5 | 
17 | O=[N+]([O-])c1cc(CN2CCCNCCNCCCNCC2)ccc1CN1CCCNCCNCCCNCC1 | 0.065 | > 203 | 0.0731 | 
18 | c1cc(CN2CCNCCCNCCNCC2)cc(CN2CCNCCCNCCNCC2)c1 | 0.0408 | > 184 | 0.0618 | 
19 | c1cc(CN2CCCNCCNCCNCCC2)cc(CN2CCCNCCNCCCNCC2)c1 | 0.0843 | > 421 | 0.759 | 
20 | 1,1'-[1,4-phenylenebis(methylene)]bis[1,4,8,11-tetraazacyclotetradecane]copper Heptahydrate (7H2O) [listing 1 of 2 here] |  |  |  | EC50 ([1]; mt4): 0.0181 µM; EC50 ([3]; mt4): 0.0272 µM
21 | NCCCNCCNCCCNCc1ccc(CN2CCCNCCNCCCNCC2)cc1 | 0.373 | > 444 | 0.711 | 

Row | Molecule | EC50 [1, 5] [µM] | CC50 (MT4 [2]; Homo sapiens, MT4) [µM] | EC50 [3, 6] [µM] | other results
22 | 1,1'-[1,4-phenylenebis(methylene)]bis[1,4,8,11-tetraazacyclotetradecane] Palladium Diperchlorate Tetrahydrate (4H2O) [listing 2 of 2 here] |  |  |  | EC50 ([1]; mt4): 31.5 µM; EC50 ([3]; mt4): 59.3 µM
23 | Fc1c(F)c(CN2CCCNCCNCCCNCC2)c(F)c(F)c1CN1CCCNCCNCCCNCC1 | 0.0079 | 47 | 0.0079 | 
24 | c1cc(CN2CCNCCNCCNCC2)cc(CN2CCNCCNCCNCC2)c1 | 0.0751 | 20 | 0.536 | 
25 | Cc1cc(CN2CCCNCCNCCCNCC2)c(C)cc1CN1CCCNCCNCCCNCC1 | 0.0064 | > 208 | 0.0011 | 
26 | Brc1cc(CN2CCCNCCNCCCNCC2)cc(CN2CCCNCCNCCCNCC2)c1 | 0.0845 | > 192 | 0.0538 | 
27 | c1ccc(CN2CCCNCCNCCCNCC2)c(CN2CCCNCCNCCCNCC2)c1 | 1.36 | > 168 | 3.13 | 
28 | c1cc(CN2CCNCCNCCNCC2)ccc1CN1CCNCCNCCNCC1 | 0.322 | 55 | 2.36 | 
29 | Cc1ccc(CN2CCCNCCNCCCNCC2)cc1 | 1.42 | > 324 | 1.15 | 
30 | c1cc(CC2CNCCNCCCNCCNC2)ccc1CC1CNCCNCCCNCCNC1 | 0.506 | 406 | 0.674 | 
31 | 1,1'-[1,4-phenylenebis(methylene)]bis[1,4,8,11-tetraazacyclotetradecane]copper Heptahydrate (7H2O) [listing 2 of 2 here] |  |  |  | CC50 (MT4 [4]): > 201 µM
32 | CCN1CCCN(CC)CCN(Cc2ccc(CN3CCCN(CC)CCN(CC)CCCN(CC)CC3)cc2)CCCN(CC)CC1 | 7.79 | > 341 | 14.6 | 
33 | c1ccc(-c2cc(CN3CCCNCCNCCCNCC3)ccc2CN2CCCNCCNCCCNCC2)cc1 | 0.106 | > 198 | 0.08 | 
34 | Brc1cc(CN2CCCNCCNCCCNCC2)ccc1CN1CCCNCCNCCCNCC1 | 0.0061 | > 203 | 0.0035 | 
35 | Clc1cc(CN2CCCNCCNCCCNCC2)c(Cl)cc1CN1CCCNCCNCCCNCC1 | 0.0107 | 58 | 0.0025 | 
36 | C1CNCCNCCCNCCNC1 | 399 | > 1250 | 150 | 
37 | c1cc(CN2CCCNCCNCCCNCC2)ccc1CN1CCCNCCCNCCCNCCC1 | 2.43 | > 209 | 11.6 | 
38 | c1cc(CN2CCCNCCNCCCNCC2)ccc1CN1CCCNCCNCCCNCC1 [listing 2 of 2 here] | 0.0042 | > 421 |  | 
39 | c1cc(CCCN2CCCNCCNCCCNCC2)ccc1CCCN1CCCNCCNCCCNCC1 | 0.403 | 283 | 14.5 | 
40 | c1ccc(-c2cc(CN3CCCNCCNCCCNCC3)cc(CN3CCCNCCNCCCNCC3)c2)cc1 | 0.206 | > 198 | 0.0246 | 
41 | c1cc(CN2CCCNCCNCCCNCC2)ccc1CN1CCCNCCNCCNCCC1 | 0.0079 | > 397 | 0.0556 | 
42 | O=[N+]([O-])c1cc(CN2CCCNCCNCCCNCC2)cc(CN2CCCNCCNCCCNCC2)c1 | 0.0406 | 44 | 0.0569 | 
